From patent publication US4599352A, “Antineoplastic platinum (IV) complexes and compositions” (priority 1984, dated 1986)

Columns and labels:
[1] = test system: IP L1210 leukemia; assay: Mouse optimal (highest tolerated) dose, IP L1210 leukemia, Days 1, 5 and 9 schedule (Table 7); assay type: in vivo
Text: *IP L1210 leukemia, Days 1, 5 and 9 schedule. Highest tolerated dose in a
least 2 of 3 experiments (i.e,. animal weight difference (testcontrol)

[2] = test system: SC Implanted L1210 Leukemia; assay: Activity against SC implanted L1210 leukemia following intravenous administration, once daily Days 1-5 (Table 5); assay type: in vivo, CD2Fl male mice; details: for HNTD (highest nontoxic dose; animal weight difference ≥ -4.0 grams) / Optimal Dose: IV once daily Days 1-5
Procedure: (§1) Biological properties of the compounds of the present invention were determined following the protocol described in Cancer Chemotherapy Reports, Vol. 3, No. 3, 1972 which report is incorporated herein by reference.
In another type of experiment the same platinum complexes were directly compared against the SC implanted L1210 following intravenous administration (Table 5).
This experiment (A8-00004 3LE32) was conducted at the Southern Research Institute, Birmingham, Ala. under the supervision of Dr. Daniel Griswold. The protocols were the same as those published previously (Attachment 11). 10^6 cells were implanted subcutaneously in CD2Fl male mice on Day 0. Drug treatments were given intravenously once daily at the doses indicated on Days 1-5 after tumor implantation. The dosage range tested included the highest and lowest doses indicated in the Table as well as intermediate values which were determined by multiplying each dose in turn by 0.5 starting with the highest dose. The diluent was saline except for NSC-271674 for which 5% sodium bicarbonate was used. All drugs were prepared fresh on the day of injection, and all were administered in solution. Median survival times for both control and drug-treated mice were determined and expressed as a percentage (% T/C). Body weights were determined on Day 5 and expressed as a weight difference (body weight of the drug-treated animals minus that of the control animals in grams) (T-C).

[3] = test system: IP L1210; assay: Activity against IP-implanted L1210 leukemia sensitive to cisplatin, 30 day test (Table 3); assay type: in vivo, Female CD2Fl mice
Procedure: as §1
(§2) Other known mechanisms of resistance for other classes of agents, such as gene amplification or target enzyme change or amplication, also need to be explored. The experiments summarized in Table 3 were conducted at the same time against both sublines using the same drug preparations. […] These experiments were repeated in a second laboratory as documented in Table 4. However, in these experiments the animals were held for 60 rather than 30 days to evaluate whether or not long-term survivors are produced after drug treatment in a more challenging setting.
This experiment (A8-00005 3LE31) was conducted at the Southern Research Institute, Birmingham, Ala. under the supervision of Dr. Daniel Griswold. The protocols were the same as those published previously (Geran et al., Cancer Chemotherapy Reports 3: No. 2, 1972 [Attachment 11]). 10^5 cells were implanted intraperitoneally in CD2Fl male mice on Day 0. Drug treatments were given intraperitoneally as single injections at the doses indicated on Days 1, 5 and 9 after tumor implantation. The diluent was saline except for NSC-271674 where 5% sodium bicarbonate was used. All drugs were prepared fresh on the day of injection, and all were administered in solution. Median survival times for both control and drug-treated mice were determined and expressed as a percentage (% T/C). Body weights were determined on Day 5 and expressed as a weight difference (body weight of the drug-treated animals minus that of the control animals in grams) (T-C). The diluent control animals lived a median of 8.4 days and gained 1.9 grams by Day 5 in this experiment. All animals, including Day 30 survivors, were used in the calculation of median survival times. The log10 change in tumor burden refers to the net log change in viable tumor cell population at the end of therapy (Rx) as compared to the start of therapy; e.g., a […] means that there was a […] and a 3 log change means there was a 1000-fold increase in tumor burden at the end of therapy. The tumor burden at the start of therapy was about 6.1×10^5 cells in this experiment.
These experiments (A8-00008 3LE31 and A8-00001 3DP31) were conducted concurrently at the Southern Research Institute, Birmingham, Ala. under the supervision of Dr. Daniel Griswold. See Table 4 for experimental details. The diluent control animals bearing L1210 leukemia lived a median of 8.6 days and gained 1.3 grams by Day 5. […] Female CD2Fl mice were used for these experiments.

[4] = test system: IP L1210/Cisplatin; assay: Activity against IP-implanted L1210/Cisplatin leukemia resistant to cisplatin, 30 day test (Table 3); assay type: in vivo, Female CD2Fl mice
Procedure: as §1, §2
This experiment (A8-00005 3LE31) was conducted at the Southern Research Institute, Birmingham, Ala. under the supervision of Dr. Daniel Griswold. The protocols were the same as those published previously (Geran et al., Cancer Chemotherapy Reports 3: No. 2, 1972 [Attachment 11]). 10^5 cells were implanted intraperitoneally in CD2Fl male mice on Day 0. Drug treatments were given intraperitoneally as single injections at the doses indicated on Days 1, 5 and 9 after tumor implantation. The diluent was saline except for NSC-271674 where 5% sodium bicarbonate was used. All drugs were prepared fresh on the day of injection, and all were administered in solution. Median survival times for both control and drug-treated mice were determined and expressed as a percentage (% T/C). Body weights were determined on Day 5 and expressed as a weight difference (body weight of the drug-treated animals minus that of the control animals in grams) (T-C). The diluent control animals lived a median of 8.4 days and gained 1.9 grams by Day 5 in this experiment. All animals, including Day 30 survivors, were used in the calculation of median survival times. The log10 change in tumor burden refers to the net log change in viable tumor cell population at the end of therapy (Rx) as compared to the start of therapy; e.g., a […] means that there was a […] and a 3 log change means there was a 1000-fold increase in tumor burden at the end of therapy. The tumor burden at the start of therapy was about 6.1×10^5 cells in this experiment. […]

[Cl][Pt-2]1([Cl])([Cl])([Cl])[NH2+][C@H]2CCCC[C@@H]2[NH2+]1 [trans (d), (1S, 2S)-Tetrachloro-trans-1,2-cyclohexanediamine platinum (IV)]
Mouse Optimal Dose (highest tolerated dose in at least 2 of 3 experiments) [1]: 8 mg/kg | Body Weight Difference ([2]; 5 mg/kg/inj IV): -6.4 Grams | Median % T/C ([2]; 5 mg/kg/inj IV): 172% | Median Survival Time ([2]; 5 mg/kg/inj IV): 17.8 days | HNTD (highest nontoxic dose; animal weight difference ≥ -4.0 grams) [2]: 2.5 mg/kg/inj | Optimal Dose [2]: 5.0 mg/kg/inj | 30 Day Survivors/Total ([3]; 1 mg/kg/dose): 0/6 | Approx. Log10 Change in Tumor Burden at End of RX ([3]; 1 mg/kg/dose): ~3.0 log10 | Median % T/C ([3]; 1 mg/kg/dose): 113% | 30 Day Survivors/Total ([3]; 2 mg/kg/dose): 0/6 | Approx. Log10 Change in Tumor Burden at End of RX ([3]; 2 mg/kg/dose): ~2.5 log10 | Median % T/C ([3]; 2 mg/kg/dose): 144% | 30 Day Survivors/Total ([3]; 4 mg/kg/dose): 2/6 | Approx. Log10 Change in Tumor Burden at End of RX ([3]; 4 mg/kg/dose): ~-1.2 log10 | Median % T/C ([3]; 4 mg/kg/dose): 209% | 30 Day Survivors/Total ([3]; 8 mg/kg/dose): 3/6 | Approx. Log10 Change in Tumor Burden at End of RX ([3]; 8 mg/kg/dose): ~-5.9 log10 | Median % T/C ([3]; 8 mg/kg/dose): 348% | 30 Day Survivors/Total ([3]; 16 mg/kg/dose): 0/6 | Median % T/C ([3]; 16 mg/kg/dose): 96% | 30 Day Survivors/Total ([4]; 1 mg/kg/dose): 0/6 | Approx. Log10 Change in Tumor Burden at End of RX ([4]; 1 mg/kg/dose): ~3.1 log10 | Median % T/C ([4]; 1 mg/kg/dose): 101% | 30 Day Survivors/Total ([4]; 2 mg/kg/dose): 0/6 | Approx. Log10 Change in Tumor Burden at End of RX ([4]; 2 mg/kg/dose): ~2.8 log10 | Median % T/C ([4]; 2 mg/kg/dose): 116% | 30 Day Survivors/Total ([4]; 4 mg/kg/dose): 0/6 | Approx. Log10 Change in Tumor Burden at End of RX ([4]; 4 mg/kg/dose): ~2.4 log10 | Median % T/C ([4]; 4 mg/kg/dose): 139% | 30 Day Survivors/Total ([4]; 8 mg/kg/dose): 3/6 | Approx. Log10 Change in Tumor Burden at End of RX ([4]; 8 mg/kg/dose): ~-5.9 log10 | Median % T/C ([4]; 8 mg/kg/dose): 322% | 30 Day Survivors/Total ([4]; 16 mg/kg/dose): 1/6 | Median % T/C ([4]; 16 mg/kg/dose): 143%

N[C@@H]1CCCC[C@H]1N.O=C([O-])c1ccc(C(=O)[O-])c(C(=O)[O-])c1.[H+].[Pt+2] [Carboxyphthalato Platinum, carboxyphthalatocyclohexanediamine platinum (II), reference compound]
Mouse Optimal Dose (highest tolerated dose in at least 2 of 3 experiments) [1]: 12.5 mg/kg | Body Weight Difference ([2]; 6.25 mg/kg/inj IV): -2.6 Grams | Median % T/C ([2]; 6.25 mg/kg/inj IV): 124% | Median Survival Time ([2]; 6.25 mg/kg/inj IV): 12.8 days | Body Weight Difference ([2]; 12.5 mg/kg/inj IV): -6.1 Grams | Median % T/C ([2]; 12.5 mg/kg/inj IV): 165% | Median Survival Time ([2]; 12.5 mg/kg/inj IV): 17.0 days | HNTD (highest nontoxic dose; animal weight difference ≥ -4.0 grams) [2]: 6.25 mg/kg/inj | Optimal Dose [2]: 12.5 mg/kg/inj | 30 Day Survivors/Total ([3]; 3.13 mg/kg/dose): 1/6 | Approx. Log10 Change in Tumor Burden at End of RX ([3]; 3.13 mg/kg/dose): ~1.4 log10 | Median % T/C ([3]; 3.13 mg/kg/dose): 174% | 30 Day Survivors/Total ([3]; 6.25 mg/kg/dose): 5/6 | Approx. Log10 Change in Tumor Burden at End of RX ([3]; 6.25 mg/kg/dose): ~-5.9 log10 | Median % T/C ([3]; 6.25 mg/kg/dose): 348% | 30 Day Survivors/Total ([3]; 12.5 mg/kg/dose): 6/6 | Approx. Log10 Change in Tumor Burden at End of RX ([3]; 12.5 mg/kg/dose): ~-5.9 log10 | Median % T/C ([3]; 12.5 mg/kg/dose): 348% | 30 Day Survivors/Total ([3]; 25 mg/kg/dose): 0/6 | Median % T/C ([3]; 25 mg/kg/dose): 73% | 30 Day Survivors/Total ([3]; 50 mg/kg/dose): 0/6 | Median % T/C ([3]; 50 mg/kg/dose): 50% | 30 Day Survivors/Total ([4]; 3.13 mg/kg/dose): 2/6 | Approx. Log10 Change in Tumor Burden at End of RX ([4]; 3.13 mg/kg/dose): ~2.4 log10 | Median % T/C ([4]; 3.13 mg/kg/dose): 139% | 30 Day Survivors/Total ([4]; 6.25 mg/kg/dose): 4/6 | Approx. Log10 Change in Tumor Burden at End of RX ([4]; 6.25 mg/kg/dose): ~-5.9 log10 | Median % T/C ([4]; 6.25 mg/kg/dose): 322% | 30 Day Survivors/Total ([4]; 12.5 mg/kg/dose): 4/6 | Approx. Log10 Change in Tumor Burden at End of RX ([4]; 12.5 mg/kg/dose): ~-5.9 log10 | Median % T/C ([4]; 12.5 mg/kg/dose): 322% | 30 Day Survivors/Total ([4]; 25 mg/kg/dose): 2/6 | Approx. Log10 Change in Tumor Burden at End of RX ([4]; 25 mg/kg/dose): ~-5.9 log10 | Median % T/C ([4]; 25 mg/kg/dose): 304% | 30 Day Survivors/Total ([4]; 50 mg/kg/dose): 1/6 | Median % T/C ([4]; 50 mg/kg/dose): 129% | Reduction in tumor burden over the course of therapy ([4]; L1210/Cisplatin): at least -5.9 logs | 30-day survivors ([4]; tolerated doses): three or more 30-day survivors
